Data taken from paper PMC2853757 (Analytical biochemistry, 2009).

What was measured:
[1] = molecular target: V-ATPase (vacuolar proton translocating ATPase) (Saccharomyces cerevisiae, UniProt P25515+P32563); assay: BCECF flow cytometry dose response in living yeast; assay type: cell-based
[2] = molecular target: V-ATPase (vacuolar proton translocating ATPase; catalytic subunit A) (Saccharomyces cerevisiae, UniProt P16140+P17255); assay: ATP hydrolysis; assay type: biochemical
V-ATPase (vacuolar proton translocating ATPase; catalytic subunit A), sequence (P17255 2-283): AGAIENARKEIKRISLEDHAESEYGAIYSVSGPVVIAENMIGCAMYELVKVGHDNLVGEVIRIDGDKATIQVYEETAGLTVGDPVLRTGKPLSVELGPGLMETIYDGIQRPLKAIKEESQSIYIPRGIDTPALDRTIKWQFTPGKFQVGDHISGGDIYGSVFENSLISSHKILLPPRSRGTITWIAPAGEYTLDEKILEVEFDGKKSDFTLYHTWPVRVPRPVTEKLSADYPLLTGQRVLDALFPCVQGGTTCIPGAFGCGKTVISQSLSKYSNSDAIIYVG
V-ATPase (vacuolar proton translocating ATPase; catalytic subunit A), sequence (P17255 738-1071): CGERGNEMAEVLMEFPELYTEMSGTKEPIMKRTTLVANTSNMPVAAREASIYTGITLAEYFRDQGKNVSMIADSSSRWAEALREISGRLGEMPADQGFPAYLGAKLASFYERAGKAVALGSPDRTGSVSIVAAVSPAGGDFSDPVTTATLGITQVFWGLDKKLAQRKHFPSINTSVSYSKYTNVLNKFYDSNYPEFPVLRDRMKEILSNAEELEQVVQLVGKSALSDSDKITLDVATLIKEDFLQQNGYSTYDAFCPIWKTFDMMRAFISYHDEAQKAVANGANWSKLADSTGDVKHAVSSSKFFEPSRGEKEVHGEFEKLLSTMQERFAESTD
V-ATPase (vacuolar proton translocating ATPase; catalytic subunit A), sequence (P16140 2-517): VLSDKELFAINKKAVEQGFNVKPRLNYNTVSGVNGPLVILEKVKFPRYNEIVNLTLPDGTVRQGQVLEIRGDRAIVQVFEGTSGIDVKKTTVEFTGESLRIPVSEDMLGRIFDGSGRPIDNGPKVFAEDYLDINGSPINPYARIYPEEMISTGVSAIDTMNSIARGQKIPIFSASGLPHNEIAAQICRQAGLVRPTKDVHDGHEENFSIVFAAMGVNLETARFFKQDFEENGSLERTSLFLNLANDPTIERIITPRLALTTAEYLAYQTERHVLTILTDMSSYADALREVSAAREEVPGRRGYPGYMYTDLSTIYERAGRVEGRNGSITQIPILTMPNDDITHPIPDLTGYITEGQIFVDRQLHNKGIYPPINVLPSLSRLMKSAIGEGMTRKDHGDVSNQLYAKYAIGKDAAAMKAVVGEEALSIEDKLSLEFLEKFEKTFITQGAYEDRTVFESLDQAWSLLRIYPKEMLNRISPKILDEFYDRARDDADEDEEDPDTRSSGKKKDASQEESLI
V-ATPase (vacuolar proton translocating ATPase; catalytic subunit A), sequence (P25515 whole entry partner): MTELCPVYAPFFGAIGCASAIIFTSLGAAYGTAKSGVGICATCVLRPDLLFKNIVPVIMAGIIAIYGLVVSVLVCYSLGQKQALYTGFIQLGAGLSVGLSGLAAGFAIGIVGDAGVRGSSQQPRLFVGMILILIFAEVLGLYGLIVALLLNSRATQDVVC
V-ATPase (vacuolar proton translocating ATPase; catalytic subunit A), sequence (P32563 2-840 partner): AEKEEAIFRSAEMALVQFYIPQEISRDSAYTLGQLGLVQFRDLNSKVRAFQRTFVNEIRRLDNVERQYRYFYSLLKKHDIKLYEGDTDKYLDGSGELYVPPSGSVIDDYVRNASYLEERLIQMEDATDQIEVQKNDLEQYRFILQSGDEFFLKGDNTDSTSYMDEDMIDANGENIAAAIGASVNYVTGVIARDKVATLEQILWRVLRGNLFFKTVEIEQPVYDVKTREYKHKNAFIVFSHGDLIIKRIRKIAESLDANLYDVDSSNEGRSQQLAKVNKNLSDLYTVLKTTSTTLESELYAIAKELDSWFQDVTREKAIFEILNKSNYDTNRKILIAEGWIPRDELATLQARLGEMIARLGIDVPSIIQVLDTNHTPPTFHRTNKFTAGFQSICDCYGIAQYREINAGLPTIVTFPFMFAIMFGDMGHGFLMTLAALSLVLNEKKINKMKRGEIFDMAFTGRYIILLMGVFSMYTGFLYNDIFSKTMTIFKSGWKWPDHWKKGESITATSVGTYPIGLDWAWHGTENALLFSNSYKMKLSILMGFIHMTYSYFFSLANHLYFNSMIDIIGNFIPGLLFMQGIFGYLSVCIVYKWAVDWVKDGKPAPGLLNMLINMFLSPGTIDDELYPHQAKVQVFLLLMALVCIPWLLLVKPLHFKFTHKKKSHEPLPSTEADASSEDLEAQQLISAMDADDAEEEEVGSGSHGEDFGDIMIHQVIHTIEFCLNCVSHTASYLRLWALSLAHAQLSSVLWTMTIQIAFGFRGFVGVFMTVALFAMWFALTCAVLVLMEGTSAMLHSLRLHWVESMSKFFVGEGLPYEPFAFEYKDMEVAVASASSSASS

EC50 [2] [µM] | SMILES | EC50 [1] [µM]
– | C/C=C/[C@H]1O[C@@](O)([C@@H](C)[C@H](O)[C@H](C)[C@H]2OC(=O)/C(OC)=C/C(C)=C/[C@@H](C)[C@@H](O)[C@@H](CC)[C@@H](O)[C@H](C)C/C(C)=C/C=C/[C@@H]2OC)C[C@@H](O[C@H]2C[C@@H](O)[C@H](OC(N)=O)[C@@H](C)O2)[C@@H]1C [concanamycin A] | 2.1 to 2.27
24.7 | CCN(CC)C(=S)SSC(=S)N(CC)CC [disulfiram] | –
